Source: BindingDB's records for doi:10.1021/jm020093q (Brown University, 2002)

Assay: Concentration required for 50% Inhibition of activity against Yersinia Protein-tyrosine phosphatase

O=C(O)C(=O)c1ccc(O)cc1 [(4-Hydroxy-phenyl)-oxo-acetic acid]
IC50: 200 µM

O=C(O)C(=O)c1ccc(OCc2ccccc2COc2ccc(C(=O)C(=O)O)cc2)cc1 [{4-[2-(4-Oxalyl-phenoxymethyl)-benzyloxy]-phenyl}-oxo-acetic acid]
IC50: 8.5 µM

O=C(O)C(=O)c1ccc(OCc2cc(COc3ccc(C(=O)C(=O)O)cc3)cc(COc3ccc(C(=O)C(=O)O)cc3)c2)cc1 [{4-[3,5-Bis-(4-oxalyl-phenoxymethyl)-benzyloxy]-phenyl}-oxo-acetic acid]
IC50: 1.7 µM

O=C(O)C(=O)c1ccc(OCc2cccc(COc3ccc(C(=O)C(=O)O)cc3)c2)cc1 [{4-[3-(4-Oxalyl-phenoxymethyl)-benzyloxy]-phenyl}-oxo-acetic acid]
IC50: 4.1 µM

O=C(O)C(=O)c1ccc(OCc2ccc(COc3ccc(C(=O)C(=O)O)cc3)cc2)cc1 [{4-[4-(4-Oxalyl-phenoxymethyl)-benzyloxy]-phenyl}-oxo-acetic acid]
IC50: 0.7 µM
